Results from patent US20220186188A1, “Method for Obtaining Pancreatic Progenitor Cells and Pancreatic Islet Beta Cells By Means of Differentiation of Human Pluripotent Stem Cells” (Asia Regenerative Medicine, Ltd., priority 2019, published 2022).

Test system: pancreatic progenitor cells differentiated from human embryonic stem cells
Assay: Flow cytometry detection of PDX1 in the pancreatic progenitor cell stage (human embryonic stem cells)
Assay type: cell-based
Conditions: 2 μM inhibitor in pancreatic progenitor cell medium, 5 days, compared with control group without WNT inhibitor
Method: a pancreatic progenitor cell medium was prepared, the medium in step 1) was replaced with the pancreatic progenitor cell medium, and the cells were cultured in a carbon dioxide incubator at 37 degrees Celsius for 5 days, during which the medium was replaced every day, wherein the composition of the pancreatic progenitor cell medium was: with an MCDB131 medium as a basic medium, and the following components at the working concentrations were further included: 0.5% of bovine serum albumin (BSA), 1.5 g/L of sodium bicarbonate, 1×glutamine (GlutaMAX), 10 mM glucose, […], 1×insulin-transferrin-selenium-ethanolamine additive (ITS-X), 50 ng/ml of fibroblast growth factor 7 (KGF), 0.5 μM SANT1 (with smo as an inhibitor target), 100 nM retinoic acid (TTNPB), 500 nM phorbol 12,13-dibutyrate (PDBu), 2 μM ALK inhibitor (K02288), and 2 μM WNT signaling pathway inhibitor XAV-939 (not added in a control group), with the concentrations all being final concentrations. […]

SMILES: Oc1nc(-c2ccc(C(F)(F)F)cc2)nc2c1CSCC2 [XAV-939]
- PDX1-positive pancreatic progenitor cells (flow cytometry): significantly increased
